We go through 15 molecules from PubChem BioAssay (NCI).

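Dose response: 5 concentrations. Exposure: 48 h. Format: 96-well plates. Endpoint: linear interpolation; highest concentration if not reached. Definition used: TGI = concentration required for complete inhibition of growth.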 *1 amine or outer side, *2 acyl side, *3 side chain or, on linkers, in order; H or OH if unused. Where a SMILES comes first, the peptide text is derived from it. [ ]: non-standard residue; d: D form. The star is where a group is joined. ξ: configuration not given here. X27 = O=C([C@H]1CCC[C@H]1N[*:1])[*:2]; ξW = NC(Cc1c[nH]c2ccccc12)C(=O)O; ξF = NC(Cc1ccccc1)C(=O)O; Boc = CC(C)(C)OC(=O)*; ξK = NCCCCC(N)C(=O)O; ξT = CC(O)C(N)C(=O)O; tBu = CC(C)(C)* Bounds are passed on as bounds.

Common to all, as to assay: inhibition of tumour cell growth, NCI panel, 48 h
In assay [1] the test system is LOX IMVI melanoma.
Assay [2] relates to PC-3 prostate.
The subject of assay [3] is RPMI-8226 leukemia.
Assay [4] relates to SR leukemia.
Assay [5] deals with ACHN renal.
The subject of assay [6] is UACC-257 melanoma.
The test system of assay [7] is HCT-116 colon.
For assay [8], the system named is SN12C renal.
Assay [9] relates to COLO 205 colon.
The test system of assay [10] is T-47D breast.
For assay [11], the system named is MDA-MB-435.
In assay [12] the test system is NCI-H23 lung.
Assay [13] has as its system HOP-62 NSCLC.
Assay [14] concerns TK-10 renal.
The test system of assay [15] is SK-MEL-28 melanoma.
Assay [16] concerns DU-145 prostate.
The test system of assay [17] is OVCAR-4 ovarian.
Assay [18] relates to HOP-92 NSCLC.
For assay [19], the system named is M14 melanoma.
For assay [20], the system named is CAKI-1 renal.

Turning to `c1cnn(C23C4C5C6C4C2C6C53)c1` (stereo unspecified), the TGI in assay [1], in assay [2], in [3], in assay [4], in [5] and in [6] was more than 100 µM throughout. The TGI in assay [7], in assay [8], in assay [9], in assay [10], in assay [11] and in [12] was more than 100 µM each time. In addition, the TGI in assay [13], in [14], in assay [15] and in assay [16] was more than 100 µM throughout.

As to `O=c1[nH]nc(Cc2ccc(Cl)cc2)n1/N=C/c1ccco1`, the TGI in assay [2], in assay [3], in assay [4], in assay [5], in assay [6] and in assay [7] was more than 100 µM in each case. Besides, the TGI in [8], in assay [17], in assay [9], in assay [10], in assay [18] and in [11] was more than 100 µM in each case. Further, the TGI in assay [12], in assay [19], in assay [13], in assay [15], in [16] and in assay [20] was more than 100 µM throughout.

For the molecule `NC(=O)C(=O)c1ncn(Cc2ccccc2)c1N`, the TGI in assay [1], in assay [2], in [3], in assay [4], in [5] and in assay [6] was more than 100 µM throughout. Further, the TGI in assay [7], in [8], in assay [17], in assay [9], in assay [10] and in [11] was more than 100 µM each time. Moreover, the TGI in assay [12], in [19], in assay [13], in assay [14], in [15] and in assay [16] was more than 100 µM each time. In assay [20], this molecule registered a TGI of more than 100 µM.

For `CCc1c(CN)c(CC)c(CNC2=NCCN2)c(CC)c1CNC1=NCCN1`, the TGI in [2], in assay [3], in assay [4], in assay [5], in [6] and in assay [7] was more than 100 µM each time. Besides, the TGI in assay [8], in assay [17], in assay [9], in assay [10], in [18] and in assay [11] was more than 100 µM throughout. Further, the TGI in [12], in assay [19], in assay [13], in assay [14], in assay [15] and in assay [16] was more than 100 µM each time. This molecule also returned a TGI in assay [20] of more than 100 µM.

For `OCc1cc2c(ccc3sc4ccc5sc6ccc7ncccc7c6c5c4c32)s1`, the TGI in assay [1] was 26.6 µM; in assay [2] it was 43.9 µM; in [3] it was 96.2 µM; in assay [4], more than 100 µM; in assay [5] it was more than 100 µM; in [6] it was 37.2 µM. Also, the TGI in [7] is 23 µM; in assay [8], 26.8 µM; in assay [17], 89.2 µM; in assay [9], 21.3 µM; in assay [10], 24.9 µM; in assay [18] it was more than 100 µM. Besides, the TGI in assay [11] was more than 100 µM; in [13] it was 28.6 µM; in [14] it was more than 100 µM; in assay [15], more than 100 µM; in assay [16], 33.6 µM; in assay [20] it was 36.6 µM.

For `Cc1c2ccnc(C(=O)NCCN(C)C)c2cc2c3cc(O)ccc3n(C)c12`, the TGI in [1] is 1.26 µM; in assay [2] it was 2 µM; in assay [3], 1.14 µM; in assay [4] it was less than 0.0564 µM; in assay [5] it was 0.397 µM; in assay [6], 4.74 µM. The TGI in [7] turned out to be 6.1 µM; in [8], 2.15 µM; in assay [17], 2.22 µM; in assay [9] it was 4.01 µM; in assay [10], 2.83 µM; in assay [18] it was 3.59 µM. Also, the TGI in assay [11] stood at 1.54 µM; in assay [12], 1.7 µM; in [19], 1.47 µM; in assay [13] it was 2.16 µM; in assay [14], 9.05 µM; in assay [15], 2.14 µM. Moreover, the TGI in assay [16] is 0.771 µM.

As to `COc1cc(C(=O)/C=C/c2ccc(OCCSCCCCCCCCCCSCCOc3ccc(/C=C/C(=O)c4cc(OC)c(OC)c(OC)c4)cc3)cc2)cc(OC)c1OC`, the TGI in assay [1], in [2], in assay [3], in assay [4], in [5] and in assay [7] was more than 100 µM throughout. In addition, the TGI in [8], in [9], in assay [10], in assay [18], in assay [11] and in [12] was more than 100 µM each time. Moreover, the TGI in assay [19], in assay [13], in assay [14], in [15], in [16] and in assay [20] was more than 100 µM throughout.

For `O=c1ccn(CC2(CO)CCCC2)c(=O)[nH]1`, the TGI in assay [1], in assay [2], in assay [3], in assay [4], in [5] and in [6] was more than 100 µM each time. Moreover, the TGI in assay [7], in assay [8], in assay [17], in assay [9], in [10] and in [18] was more than 100 µM in each case. Moreover, the TGI in assay [11], in [12], in assay [13], in assay [14], in assay [15] and in assay [16] was more than 100 µM throughout. In assay [20], this molecule gave a TGI of more than 100 µM.

Regarding `CCCCc1ccc(Nc2nc(Cl)c3ncn(COCCOC(C)=O)c3n2)cc1`, the TGI in assay [1] came to 27.9 µM; in [2], 32.2 µM; in [3], 55.4 µM; in [4], 53.8 µM; in assay [5] it was 32.7 µM; in assay [6] it was 36.4 µM. In addition, the TGI is 31.7 µM in assay [7]; 39.8 µM in [8]; more than 100 µM in assay [17]; 48.5 µM in assay [9]; 65.9 µM in [10]; 5.33 µM in assay [18]. Moreover, the TGI in assay [11] was 33.1 µM; in assay [12], 31.4 µM; in [19], 36.7 µM; in [13] it was 30.8 µM; in assay [14], 35.1 µM; in assay [16], 29.7 µM.

Consider `N#Cc1cnc(-n2[nH]c3c(c2=O)CCCC3)[nH]c1=O`, for which the TGI in assay [2], in [3], in assay [4], in [5], in assay [6] and in assay [7] was more than 100 µM in each case. The TGI in assay [8], in assay [17], in assay [9], in assay [10], in assay [18] and in assay [11] was more than 100 µM each time. Moreover, the TGI in [12], in assay [19], in assay [14], in assay [15], in [16] and in assay [20] was more than 100 µM throughout.

On to `CC(OC(C)(C)C)C1NC(=O)C(CCCCNC(=O)OC(C)(C)C)NC(=O)C(Cc2c[nH]c3ccccc23)NC(=O)C(Cc2ccccc2)NC(=O)[C@H]2CCC[C@H]2NC(=O)C(Cc2ccccc2)NC1=O` (stereo partly specified) (cyclo([X27][ξF][ξW][ξK](Boc)[ξT](tBu)[ξF])), for which the TGI in assay [1] was more than 100 µM; in assay [2] it was more than 100 µM; in assay [3], more than 100 µM; in [4] it was more than 100 µM; in assay [5] it was more than 100 µM; in [6] it was 33.5 µM. Moreover, the TGI in assay [7] is more than 100 µM; in [8], 88.6 µM; in [17] it was more than 100 µM; in assay [9] it was more than 100 µM; in assay [10], more than 100 µM; in [18], more than 100 µM. Besides, the TGI in assay [11], in [12], in [19], in assay [13], in [15] and in assay [16] was more than 100 µM each time. Further, the TGI in assay [20] is more than 100 µM.

On to `COc1cc(=O)c2c(O)c3c(O)oc(C)cc3c(OC)c2c1`, for which the TGI is more than 100 µM in assay [2]; 46.4 µM in assay [3]; 64.2 µM in assay [4]; 63 µM in assay [5]; more than 100 µM in assay [6]; 38.4 µM in assay [7]. The TGI is 55.8 µM in assay [8]; 27.9 µM in [17]; 42.2 µM in [9]; 90.8 µM in [10]; 42.4 µM in assay [18]; 32.7 µM in assay [11]. In addition, the TGI was 69.8 µM in assay [12]; 88.5 µM in assay [19]; 76.1 µM in [13]; 64.9 µM in assay [14]; 60 µM in [15]; more than 100 µM in [16]. Further, the TGI in [20] worked out at 97.5 µM.

Take `O=C(O)CSC(CC1(c2ccc(Cl)cc2)NC(=O)CS1)c1ccc(Cl)cc1` (stereo unspecified): the TGI in assay [1], in assay [2], in [3], in assay [4], in assay [5] and in assay [6] was more than 100 µM each time. Moreover, the TGI in assay [7] was more than 100 µM; in [8], more than 100 µM; in assay [17], more than 100 µM; in assay [9], more than 100 µM; in assay [10] it was more than 100 µM; in assay [18], 87.6 µM. The TGI in assay [11], in assay [12], in assay [19], in assay [13], in assay [14] and in assay [16] was more than 100 µM throughout. In assay [20], this molecule yielded a TGI of more than 100 µM.

Regarding `CCN(CC)CCC(=O)c1ccc(Sc2ccc(F)cc2)cc1`, the TGI in [1] turned out to be 37.2 µM; in assay [2], 33.6 µM; in assay [3], 9.74 µM; in assay [4] it was 48.6 µM; in assay [5], 33.2 µM; in [6], 31 µM. Besides, the TGI in assay [7] came out at 33.6 µM; in assay [8] it was 46.8 µM; in assay [17] it was 42.9 µM; in assay [9] it was 41.9 µM; in [10], 42.9 µM; in assay [11], 32.4 µM. Besides, the TGI was 33.9 µM in assay [12]; 54.6 µM in [19]; 41.4 µM in assay [13]; 27.9 µM in assay [14]; 34.3 µM in assay [15]; 36.1 µM in [16]. The TGI in [20] is 29.5 µM.

As for `O=C1c2cccnc2S(=O)(=O)N1c1ccc(Oc2ccccc2)cc1`, the TGI in assay [2], in [3], in [4], in [5], in assay [6] and in [7] was more than 100 µM each time. The TGI in [8], in assay [17], in assay [9], in assay [10], in assay [18] and in assay [11] was more than 100 µM each time. In addition, the TGI in [12], in assay [19], in assay [13], in assay [15], in assay [16] and in assay [20] was more than 100 µM throughout.
